Test results from paper PMC5908784, “Extracellular loops 2 and 3 of the calcitonin receptor selectively modify agonist binding and efficacy” (Biochemical Pharmacology, 2018).
Numbering of substitutions follows the chain as printed. Where a SMILES comes first, the peptide text is derived from it. Bridges are numbered along the chain shown (N, C = ends).

Columns and labels:
Assay in all cases: Heterologous whole cell competition binding
Details in all cases: heterologous competition of 125I-sCT(8-32), whole cells, mean ± S.E.M., SEM
hCTR T280A = molecular target: T1, hCTR T280A (Homo sapiens, UniProt P30988, T280A)
T1 construct: expressed in transfected cells
T1 sequence (P30988 25-474 T280A): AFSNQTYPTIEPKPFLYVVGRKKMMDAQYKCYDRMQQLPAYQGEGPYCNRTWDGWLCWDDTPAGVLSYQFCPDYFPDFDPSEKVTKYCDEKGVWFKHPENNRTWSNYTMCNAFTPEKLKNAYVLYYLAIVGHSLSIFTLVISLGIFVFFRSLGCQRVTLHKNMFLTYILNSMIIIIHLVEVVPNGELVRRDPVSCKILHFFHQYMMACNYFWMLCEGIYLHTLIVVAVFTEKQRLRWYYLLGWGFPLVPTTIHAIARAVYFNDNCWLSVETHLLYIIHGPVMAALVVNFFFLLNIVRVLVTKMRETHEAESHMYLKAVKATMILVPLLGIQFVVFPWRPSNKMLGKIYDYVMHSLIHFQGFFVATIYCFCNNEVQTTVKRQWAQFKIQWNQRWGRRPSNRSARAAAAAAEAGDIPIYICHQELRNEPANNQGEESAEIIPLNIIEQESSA
Description: (§1) Following overnight incubation non-bound ligand was removed and radioactivity was determined using a gamma counter.
(§2) Data were corrected for radioligand occupancy using the Cheng-Prusoff equation in Prism; as such data are reported as pKi. Emax and EC50 were estimated from concentration-response curves using with a 3-parameter logistic equation in Prism (v7). These values are a composite of functional affinity, efficacy and stimulus response coupling. […] Significance was accepted at P < 0.05.

hCTR I279A = molecular target: T2, hCTR I279A (Homo sapiens, UniProt P30988, I279A)
T2 construct: expressed in transfected cells
T2 sequence (P30988 25-474 I279A): T1 sequence (P30988 25-474 T280A) with I255A, A256T
Description: as §1, §2

hCTR WT = molecular target: T3, hCTR WT (Homo sapiens, UniProt P30988)
T3 construct: expressed in transfected cells
T3 sequence (P30988 25-474): T1 sequence (P30988 25-474 T280A) with A256T
Description: as §1, §2

hCTR Y299A = molecular target: T4, hCTR Y299A (Homo sapiens, UniProt P30988, Y299A)
T4 construct: c-Myc (N); expressed in transfected cells
T4 sequence (P30988 25-474 Y299A): T1 sequence (P30988 25-474 T280A) with A256T, Y275A
Description: as §1, §2

hCTR W361A = molecular target: T5, hCTR W361A (Homo sapiens, UniProt P30988, W361A)
T5 construct: expressed in transfected cells
T5 sequence (P30988 25-474 W361A): T1 sequence (P30988 25-474 T280A) with A256T, W337A
Description: as §1, §2

Ki (hCTR T280A): 6.31 nM
Ki (hCTR I279A): 14.8 nM
Ki (hCTR WT): 5.37 nM
Ki (hCTR Y299A): 46.8 nM
Ki (hCTR W361A): 33.9 nM
Structure (SMILES): CSCC[C@H](NC(=O)CNC(=O)[C@H](CO)NC(=O)[C@H](Cc1ccccc1)NC(=O)[C@H](CCCNC(=N)N)NC(=O)[C@H](Cc1c[nH]cn1)NC(=O)[C@H](Cc1ccccc1)NC(=O)[C@H](CC(N)=O)NC(=O)[C@H](CC(N)=O)NC(=O)[C@H](CC(C)C)NC(=O)[C@H](CC(N)=O)NC(=O)[C@H](CCCNC(=N)N)NC(=O)[C@H](Cc1c[nH]c2ccccc12)NC(=O)[C@H](Cc1ccc(O)cc1)NC(=O)[C@H](C)NC(=O)[C@H](CO)NC(=O)[C@H](CC(C)C)NC(=O)[C@@H](NC(=O)[C@@H]1CSSC[C@H](N)C(=O)N[C@@H](CO)C(=O)N[C@@H](CC(N)=O)C(=O)N[C@@H](CC(C)C)C(=O)N[C@@H](CO)C(=O)N[C@@H]([C@@H](C)O)C(=O)N1)C(C)C)C(=O)NCC(=O)N[C@@H](Cc1ccccc1)C(=O)NCC(=O)N1CCC[C@H]1C(=O)N[C@@H](CCC(=O)O)C(=O)N[C@H](C(=O)N1CCC[C@H]1C(N)=O)[C@@H](C)O [pCT] (H-CSNLSTCVLSAYWRNLNNFHRFSGMGFGPETP-NH2; disulfide 1-7)
